From patent US20150141381A1, “TETRACYCLINE COMPOUNDS HAVING TARGET THERAPEUTIC ACTIVITIES” (Paratek Pharmaceuticals, Inc., priority 2001, published 2015)

Tests used:
[1] = system: S. aureus RN450; experiment: In Vitro Anti-Bacterial Activity Assay (MIC), gram positive; format: cell-based; conditions: Staphylococcus aureus, RN450, 18 h, MIC class, Table 3; read-out: Antibiotic Activity Gram +
[2] = system: E. coli mL308 225; experiment: In Vitro Anti-Bacterial Activity Assay (MIC), gram negative; format: cell-based; conditions: Escherichia coli, ML308225, 18 h, MIC class, Table 3; read-out: Antibiotic Activity Gram −

CN(C)[C@@H]1C(O)=C(C(N)=O)C(=O)[C@@]2(O)C(O)=C3C(=O)c4c(O)ccc(-c5cccc(C=O)c5)c4C[C@H]3C[C@@H]12 [BF]
MIC [1]: < 4 µg/mL
MIC [2]: < 4 µg/mL

CN(C)[C@@H]1C(O)=C(C(N)=O)C(=O)[C@@]2(O)C(O)=C3C(=O)c4c(O)ccc(C#CC(=O)O)c4C[C@H]3C[C@@H]12 [BH]
MIC [1]: > 4 µg/mL
MIC [2]: > 4 µg/mL

CN(C)[C@@H]1C(O)=C(C(N)=O)C(=O)[C@@]2(O)C(O)=C3C(=O)c4c(O)ccc(C#Cc5cccc(O)c5)c4C[C@H]3C[C@@H]12 [BI]
MIC [1]: < 4 µg/mL
MIC [2]: > 4 µg/mL

CC(=O)c1ccc(O)c2c1C[C@H]1C[C@H]3[C@H](N(C)C)C(O)=C(C(N)=O)C(=O)[C@@]3(O)C(O)=C1C2=O [BJ]
MIC [1]: < 4 µg/mL
MIC [2]: < 4 µg/mL

COc1cccc(CCc2ccc(O)c3c2C[C@H]2C[C@H]4[C@H](N(C)C)C(O)=C(C(N)=O)C(=O)[C@@]4(O)C(O)=C2C3=O)c1 [BK]
MIC [1]: < 4 µg/mL
MIC [2]: > 4 µg/mL

CN(C)[C@@H]1C(O)=C(C(N)=O)C(=O)[C@@]2(O)C(O)=C3C(=O)c4c(O)ccc(/C=C/c5ccc(Br)cc5)c4C[C@H]3C[C@@H]12 [BL]
MIC [1]: < 4 µg/mL
MIC [2]: > 4 µg/mL

CN(C)CC(=O)Nc1ccc(C#Cc2ccc(O)c3c2C[C@H]2C[C@H]4[C@H](N(C)C)C(O)=C(C(N)=O)C(=O)[C@@]4(O)C(O)=C2C3=O)cc1 [BM]
MIC [1]: < 4 µg/mL
MIC [2]: < 4 µg/mL

CN(C)[C@@H]1C(O)=C(C(N)=O)C(=O)[C@@]2(O)C(O)=C3C(=O)c4c(O)ccc(-c5ccc(C(=O)O)cc5)c4C[C@H]3C[C@@H]12 [BN]
MIC [1]: < 4 µg/mL
MIC [2]: > 4 µg/mL

CN(C)[C@@H]1C(O)=C(C(N)=O)C(=O)[C@@]2(O)C(O)=C3C(=O)c4c(O)ccc(C=CC(N)=O)c4C[C@H]3C[C@@H]12 [BO]
MIC [1]: > 4 µg/mL
MIC [2]: > 4 µg/mL

CN(C)CCCc1ccc(O)c2c1C[C@H]1C[C@H]3[C@H](N(C)C)C(O)=C(C(N)=O)C(=O)[C@@]3(O)C(O)=C1C2=O [BQ]
MIC [1]: < 4 µg/mL
MIC [2]: > 4 µg/mL

COc1ccc(C#Cc2cc(C#Cc3ccc(OC)cc3)c3c(c2O)C(=O)C2=C(O)[C@]4(O)C(=O)C(C(N)=O)=C(O)[C@@H](N(C)C)[C@@H]4C[C@@H]2C3)cc1 [BS]
MIC [1]: > 4 µg/mL
MIC [2]: > 4 µg/mL

CN(C)C1C(O)=C(C(N)=O)C(=O)[C@@]2(O)C(O)=C3C(=O)c4c(O)ccc(-c5ccc(CN6CCCC6)cc5)c4C[C@H]3C[C@@H]12 (some centres unmarked) [BT]
MIC [1]: < 4 µg/mL
MIC [2]: < 4 µg/mL

CN(C)[C@@H]1C(O)=C(C(N)=O)C(=O)[C@@]2(O)C(O)=C3C(=O)c4c(O)ccc(C#Cc5ccc(NS(C)(=O)=O)cc5)c4C[C@H]3C[C@@H]12 [BU]
MIC [1]: < 4 µg/mL
MIC [2]: > 4 µg/mL

COc1ccc(CN2CCOCC2)cc1-c1ccc(O)c2c1C[C@H]1C[C@H]3[C@H](N(C)C)C(O)=C(C(N)=O)C(=O)[C@@]3(O)C(O)=C1C2=O [BV]
MIC [1]: < 4 µg/mL
MIC [2]: > 4 µg/mL

COc1cc(C/C=C\c2ccc(O)c3c2C[C@H]2C[C@H]4[C@H](N(C)C)C(O)=C(C(N)=O)C(=O)[C@@]4(O)C(O)=C2C3=O)ccc1O [BW]
MIC [1]: < 4 µg/mL
MIC [2]: > 4 µg/mL

CN(C)[C@@H]1C(O)=C(C(N)=O)C(=O)[C@@]2(O)C(O)=C3C(=O)c4c(O)ccc(CCc5ccccn5)c4C[C@H]3C[C@@H]12 [BY]
MIC [1]: < 4 µg/mL
MIC [2]: > 4 µg/mL

CN(C)c1ccc(O)c2c1C[C@H]1C[C@H]3[C@H](N(C)C)C(O)=C(C(N)=O)C(=O)[C@@]3(O)C(O)=C1C2=O [B]
MIC [1]: < 4 µg/mL
MIC [2]: < 4 µg/mL

CN(C)c1cc(NC(=S)Nc2cccc3ccccc23)c(O)c2c1C[C@H]1C[C@H]3[C@H](N(C)C)C(O)=C(C(N)=O)C(=O)[C@@]3(O)C(O)=C1C2=O [CA]
MIC [1]: < 4 µg/mL
MIC [2]: > 4 µg/mL

CN(C)c1cc(NC(=O)Nc2ccccc2)c(O)c2c1C[C@H]1C[C@H]3[C@H](N(C)C)C(O)=C(C(N)=O)C(=O)[C@@]3(O)C(O)=C1C2=O [CB]
MIC [1]: < 4 µg/mL
MIC [2]: > 4 µg/mL

CN(C)[C@@H]1C(O)=C(C(N)=O)C(=O)[C@@]2(O)C(O)=C3C(=O)c4c(O)c(C(C)(C)C)cc(CNC(=O)c5cccnc5)c4C[C@H]3C[C@@H]12 [CE]
MIC [1]: > 4 µg/mL
MIC [2]: > 4 µg/mL

CN(C)c1cc(NC(=O)Nc2ccc(OC(F)(F)F)cc2)c(O)c2c1C[C@H]1C[C@H]3[C@H](N(C)C)C(O)=C(C(N)=O)C(=O)[C@@]3(O)C(O)=C1C2=O [CG]
MIC [1]: < 4 µg/mL
MIC [2]: > 4 µg/mL

CN(C)c1cc(NC(=O)NC(=O)c2ccccc2)c(O)c2c1C[C@H]1C[C@H]3[C@H](N(C)C)C(O)=C(C(N)=O)C(=O)[C@@]3(O)C(O)=C1C2=O [CH]
MIC [1]: < 4 µg/mL
MIC [2]: > 4 µg/mL

CN(C)c1cc(NC(=S)Nc2cc(C(F)(F)F)cc(C(F)(F)F)c2)c(O)c2c1C[C@H]1C[C@H]3[C@H](N(C)C)C(O)=C(C(N)=O)C(=O)[C@@]3(O)C(O)=C1C2=O [CI]
MIC [1]: < 4 µg/mL
MIC [2]: > 4 µg/mL

COc1ccc(CN(C)C)cc1-c1ccc(O)c2c1C[C@H]1C[C@H]3[C@H](N(C)C)C(O)=C(C(N)=O)C(=O)[C@@]3(O)C(O)=C1C2=O [CJ]
MIC [1]: < 4 µg/mL
MIC [2]: < 4 µg/mL

CN(C)[C@@H]1C(O)=C(C(N)=O)C(=O)[C@@]2(O)C(O)=C3C(=O)c4c(O)ccc(C#CCNS(C)(=O)=O)c4C[C@H]3C[C@@H]12 [CM]
MIC [1]: > 4 µg/mL
MIC [2]: > 4 µg/mL

CN(C)[C@@H]1C(O)=C(C(N)=O)C(=O)[C@@]2(O)C(O)=C3C(=O)c4c(O)ccc(-c5cccc(C(N)=O)c5)c4C[C@H]3C[C@@H]12 [CN]
MIC [1]: < 4 µg/mL
MIC [2]: < 4 µg/mL

CC(=O)Nc1ccc(C#Cc2ccc(O)c3c2C[C@H]2C[C@H]4[C@H](N(C)C)C(O)=C(C(N)=O)C(=O)[C@@]4(O)C(O)=C2C3=O)cc1 [CO]
MIC [1]: < 4 µg/mL
MIC [2]: > 4 µg/mL

CN(C)[C@@H]1C(O)=C(C(N)=O)C(=O)[C@@]2(O)C(O)=C3C(=O)c4c(O)ccc(CCCNS(C)(=O)=O)c4C[C@H]3C[C@@H]12 [CQ]
MIC [1]: < 4 µg/mL
MIC [2]: > 4 µg/mL

CC(O)CCc1ccc(O)c2c1C[C@H]1C[C@H]3[C@H](N(C)C)C(O)=C(C(N)=O)C(=O)[C@@]3(O)C(O)=C1C2=O (some centres unmarked) [CR]
MIC [1]: < 4 µg/mL
MIC [2]: > 4 µg/mL

CCc1cc(CNC(=O)c2cccnc2)c(O)c2c1C[C@H]1C[C@H]3[C@H](N(C)C)C(O)=C(C(N)=O)C(=O)[C@@]3(O)C(O)=C1C2=O [CS]
MIC [1]: > 4 µg/mL
MIC [2]: > 4 µg/mL

CCc1cc(CN)c(O)c2c1C[C@H]1C[C@H]3[C@H](N(C)C)C(O)=C(C(N)=O)C(=O)[C@@]3(O)C(O)=C1C2=O [CT]
MIC [1]: > 4 µg/mL
MIC [2]: < 4 µg/mL

C[C@H]1c2ccc(/C=C\C(=O)NC(C)(C)C)c(O)c2C(=O)C2=C(O)[C@]3(O)C(=O)C(C(N)=O)=C(O)[C@@H](N(C)C)[C@@H]3[C@@H](O)[C@@H]21 [CU]
MIC [1]: > 4 µg/mL
MIC [2]: > 4 µg/mL

CN(C)[C@@H]1C(O)=C(C(N)=O)C(=O)[C@@]2(O)C(O)=C3C(=O)c4c(O)c(CNC(=O)c5cccnc5)cc(CCC5CCCCC5)c4C[C@H]3C[C@@H]12 [CV]
MIC [1]: < 4 µg/mL
MIC [2]: > 4 µg/mL

CN(C)c1cc(C#Cc2ccc(N)cc2)c(O)c2c1C[C@H]1C[C@H]3[C@H](N(C)C)C(O)=C(C(N)=O)C(=O)[C@@]3(O)C(O)=C1C2=O [CX]
MIC [1]: > 4 µg/mL
MIC [2]: > 4 µg/mL

COC(=O)C#Cc1cc(N(C)C)c2c(c1O)C(=O)C1=C(O)[C@]3(O)C(=O)C(C(N)=O)=C(O)C(N(C)C)[C@@H]3C[C@@H]1C2 (some centres unmarked) [CY]
MIC [1]: < 4 µg/mL
MIC [2]: > 4 µg/mL

Cc1ccc(S(=O)(=O)NCC#Cc2cc(N(C)C)c3c(c2O)C(=O)C2=C(O)[C@]4(O)C(=O)C(C(N)=O)=C(O)C(N(C)C)[C@@H]4C[C@@H]2C3)cc1 (some centres unmarked) [CZ]
MIC [1]: > 4 µg/mL
MIC [2]: > 4 µg/mL

CN(C)c1cc(NC(=S)Nc2ccc([N+](=O)[O-])cc2)c(O)c2c1C[C@H]1C[C@H]3[C@H](N(C)C)C(O)=C(C(N)=O)C(=O)[C@@]3(O)C(O)=C1C2=O [DA]
MIC [1]: < 4 µg/mL
MIC [2]: > 4 µg/mL

CN(C)c1cc(NC(=O)Nc2ccc(F)c([N+](=O)[O-])c2)c(O)c2c1C[C@H]1C[C@H]3[C@H](N(C)C)C(O)=C(C(N)=O)C(=O)[C@@]3(O)C(O)=C1C2=O [DB]
MIC [1]: < 4 µg/mL
MIC [2]: > 4 µg/mL

CN(C)c1cc(NC(=O)Nc2ccc(Cl)cc2[N+](=O)O)c(O)c2c1C[C@H]1C[C@H]3[C@H](N(C)C)C(O)=C(C(N)=O)C(=O)[C@@]3(O)C(O)=C1C2=O [DC]
MIC [1]: < 4 µg/mL
MIC [2]: > 4 µg/mL

CN(C)c1cc(NC(=O)Nc2cccc(F)c2)c(O)c2c1C[C@H]1C[C@H]3[C@H](N(C)C)C(O)=C(C(N)=O)C(=O)[C@@]3(O)C(O)=C1C2=O [DD]
MIC [1]: < 4 µg/mL
MIC [2]: > 4 µg/mL

CN(C)[C@@H]1C(O)=C(C(N)=O)C(=O)[C@@]2(O)C(O)=C3C(=O)c4c(O)c(CN)cc(-c5cccc([N+](=O)O)c5)c4C[C@H]3C[C@@H]12 [DE]
MIC [1]: < 4 µg/mL
MIC [2]: > 4 µg/mL

CN(C)[C@@H]1C(O)=C(C(N)=O)C(=O)[C@@]2(O)C(O)=C3C(=O)c4c(O)c(CN)cc(-c5ccc(F)cc5)c4C[C@H]3C[C@@H]12 [DF]
MIC [1]: < 4 µg/mL
MIC [2]: > 4 µg/mL

CCCCCc1ccc(O)c2c1C[C@H]1C[C@H]3[C@H](N(C)C)C(O)=C(C(N)=O)C(=O)[C@@]3(O)C(O)=C1C2=O [DG]
MIC [1]: < 4 µg/mL
MIC [2]: > 4 µg/mL

CC(C)S(=O)(=O)NCC#Cc1cc(N(C)C)c2c(c1O)C(=O)C1=C(O)[C@]3(O)C(=O)C(C(N)=O)=C(O)[C@@H](N(C)C)[C@@H]3C[C@@H]1C2 [DI]
MIC [1]: > 4 µg/mL
MIC [2]: > 4 µg/mL

CCCC#Cc1ccc(O)c2c1C[C@H]1C[C@H]3[C@H](N(C)C)C(O)=C(C(N)=O)C(=O)[C@@]3(O)C(O)=C1C2=O [DK]
MIC [1]: > 4 µg/mL
MIC [2]: > 4 µg/mL

CCCCOC(=O)C#Cc1cc(N(C)C)c2c(c1O)C(=O)C1=C(O)[C@]3(O)C(=O)C(C(N)=O)=C(O)[C@@H](N(C)C)[C@@H]3C[C@@H]1C2 [DL]
MIC [1]: > 4 µg/mL
MIC [2]: > 4 µg/mL
